The results in this text go back to patent US12084419B2, “Cell metabolism modulating compounds and uses thereof” (CRESCENTA BIOSCIENCES, priority 2020, dated 2024).

The experiment deals with T1, His6 tagged human recombinant FABP4 (Homo sapiens, UniProt P15090).
T1 construct: purchased Cayman Chemicals 10009549
The experiment is described as follows: FABP4 TR-FRET assay: displacement of BODIPY FL C12 fatty acid. The settings on record: triplicates, inhibition of BODIPY FL C12 binding; for inhibition at 1 µM: 1 μM compound; for inhibition at 10 µM: 10 μM compound. In short, it runs like this:
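TR-FRET with a Tb anti-His6 antibody donor and BODIPY FL C12 as acceptor; compounds came from 0.362 and 0.0362 mM DMSO stocks. Protein (83 nM) and antibody (49.6 nM) solutions were premixed 30 min on ice in 25 mM Tris pH 7.4 with γ-globulins, NP-40 and DTT. Incubation was 10 min at room temperature; inhibition came from the 520/615 nm ratio.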

T1 sequence (P15090 whole entry): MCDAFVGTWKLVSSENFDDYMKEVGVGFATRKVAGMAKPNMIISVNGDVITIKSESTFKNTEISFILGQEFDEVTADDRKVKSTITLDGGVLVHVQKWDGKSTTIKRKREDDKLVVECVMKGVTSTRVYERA

Regarding `CCCCCCC1CCCc2c(n(Cc3cccc(F)c3)c3c(C(=O)O)cccc23)C1` (stereo not drawn) [5-[(3-fluorophenyl)methyl]-7-hexyl-5H,6H,7H,8H,9H,10H-cyclohepta[b]indole-4-carboxylic acid], the inhibition at 1 µM was determined as 93.6% and the inhibition at 10 µM turned out to be 92.9%.
For `CCCCC1CCCc2c1c1cccc(C(=O)O)c1n2Cc1cccc(C#N)c1` (stereo not drawn) [4-butyl-9-[(3-cyanophenyl)methyl]-2,3,4,9-tetrahydro-1H-carbazole-8-carboxylic acid], the inhibition at 1 µM is 25.3% and the inhibition at 10 µM was determined as 65.5%.
The like results for `CCCC1CCc2c(n(Cc3cccc(C#N)c3)c3c(C(=O)O)cccc23)C1` (stereo not drawn) [9-[(3-cyanophenyl)methyl]-2-propyl-2,3,4,9-tetrahydro-1H-carbazole-8-carboxylic acid] were, in that order, 55.6% and 81.4%.
Consider `CCCCCOC1CCCc2c1n(Cc1cccc(C(N)=O)c1)c1c(C(=O)O)cccc21` (stereo not drawn) [9-[(3-carbamoylphenyl)methyl]-1-(pentyloxy)-2,3,4,9-tetrahydro-1H-carbazole-8-carboxylic acid], for which the inhibition at 1 µM stood at 81.9% and the inhibition at 10 µM came to 100%.
Turning to `CCCCC1CCCc2c(n(Cc3ccccc3C#N)c3c(C(=O)O)cccc23)C1` (stereo not drawn) [7-butyl-5-[(2-cyanophenyl)methyl]-5H,6H,7H,8H,9H,10H-cyclohepta[b]indole-4-carboxylic acid], the inhibition at 1 µM is 91.5% and the inhibition at 10 µM came to 87.3%.
In the case of `CCC1CCCc2c1n(Cc1cccc(C(N)=O)c1)c1c(C(=O)O)cccc21` (stereo not drawn) [9-[(3-carbamoylphenyl)methyl]-1-ethyl-2,3,4,9-tetrahydro-1H-carbazole-8-carboxylic acid], the inhibition at 1 µM was found to be 90.3% and the inhibition at 10 µM is 95.9%.
In the case of `CCCCC1CCCCc2c1n(Cc1cccc(C#N)c1)c1c(C(=O)O)cccc21` (stereo not drawn) [6-butyl-5-[(3-cyanophenyl)methyl]-5H,6H,7H,8H,9H,10H-cyclohepta[b]indole-4-carboxylic acid], the inhibition at 1 µM stood at 71.3% and the inhibition at 10 µM amounted to 85.7%.
Regarding `CCCCC1CCCCc2c1c1cccc(C(=O)O)c1n2Cc1cccc(C(N)=O)c1` (stereo not drawn) [10-butyl-5-[(3-carbamoylphenyl)methyl]-5H,6H,7H,8H,9H,10H-cyclohepta[b]indole-4-carboxylic acid], the inhibition at 1 µM is 63.3% and the inhibition at 10 µM is 87.9%.
Taken in the same sequence, the figures for `CCCC1CCc2c1n(Cc1cccc(C#N)c1)c1c(C(=O)O)cccc21` (stereo not drawn) [4-[(3-cyanophenyl)methyl]-3-propyl-1H,2H,3H,4H-cyclopenta[b]indole-5-carboxylic acid] were 67.8% and 97.6%.
Turning to `CCCCC1CCCc2c(n(Cc3cccc(Cl)c3)c3c(C(=O)O)cccc23)C1` (stereo not drawn) [7-butyl-5-[(3-chlorophenyl)methyl]-5H,6H,7H,8H,9H,10H-cyclohepta[b]indole-4-carboxylic acid], the inhibition at 1 µM is 84.2% and the inhibition at 10 µM was found to be 83%.
For the compound `CCCCC1CCCc2c(n(Cc3cccc(F)c3)c3c(C(=O)O)cccc23)C1` (stereo not drawn) [7-butyl-5-[(3-fluorophenyl)methyl]-5H,6H,7H,8H,9H,10H-cyclohepta[b]indole-4-carboxylic acid], the inhibition at 1 µM was 97% and the inhibition at 10 µM is 90.6%.
As to `CCCCC1CCCc2c(n(Cc3cccc(C(N)=O)c3)c3c(C(=O)NCC(=O)O)cccc23)C1` (stereo not drawn) [2-({7-butyl-5-[(3-carbamoylphenyl)methyl]-5H,6H,7H,8H,9H,10H-cyclohepta[b]indol-4-yl}formamido)acetic acid], the inhibition at 1 µM was 59% and the inhibition at 10 µM is 90.2%.
Regarding `CCCCCCC1CCCc2c(n(Cc3ccccc3F)c3c(C(=O)O)cccc23)C1` (stereo not drawn) [5-[(2-fluorophenyl)methyl]-7-hexyl-5H,6H,7H,8H,9H,10H-cyclohepta[b]indole-4-carboxylic acid], the inhibition at 1 µM was 77.5% and the inhibition at 10 µM turned out to be 87.3%.
The like results for `CCC1CCCCc2c1c1cccc(C(=O)O)c1n2Cc1cccc(C#N)c1` (stereo not drawn) [5-[(3-cyanophenyl)methyl]-10-ethyl-5H,6H,7H,8H,9H,10H-cyclohepta[b]indole-4-carboxylic acid] were, in that order, 92.4% and 98.2%.
Take `CCCCCCC1CCCc2c(n(Cc3ccc4ocnc4c3)c3c(C(=O)O)cccc23)C1` (stereo not drawn) [5-[(1,3-benzoxazol-5-yl)methyl]-7-hexyl-5H,6H,7H,8H,9H,10H-cyclohepta[b]indole-4-carboxylic acid]: the inhibition at 10 µM is 88.5%.
For the compound `CCCC1CCCCc2c1c1cccc(C(=O)O)c1n2Cc1cccc(C(N)=O)c1` (stereo not drawn) [5-[(3-carbamoylphenyl)methyl]-10-propyl-5H,6H,7H,8H,9H,10H-cyclohepta[b]indole-4-carboxylic acid], the inhibition at 1 µM was determined as 38.8% and the inhibition at 10 µM turned out to be 91.6%.
Take `CCCC1CCc2c(n(Cc3cccc(C(N)=O)c3)c3c(C(=O)O)cccc23)C1` (stereo not drawn) [9-[(3-carbamoylphenyl)methyl]-2-propyl-2,3,4,9-tetrahydro-1H-carbazole-8-carboxylic acid]: the inhibition at 1 µM amounted to 83.6% and the inhibition at 10 µM was determined as 88%.
In the case of `CCCCCC1CCCCc2c1c1cccc(C(=O)O)c1n2Cc1cccc(C#N)c1` (stereo not drawn) [5-[(3-cyanophenyl)methyl]-10-pentyl-5H,6H,7H,8H,9H,10H-cyclohepta[b]indole-4-carboxylic acid], the inhibition at 1 µM came to 44.3% and the inhibition at 10 µM was determined as 77%.
As for `CCCCC1CCCc2c(n(Cc3ccccc3C)c3c(C(=O)O)cccc23)C1` (stereo not drawn) [7-butyl-5-[(2-methylphenyl)methyl]-5H,6H,7H,8H,9H,10H-cyclohepta[b]indole-4-carboxylic acid], the inhibition at 1 µM was found to be 101% and the inhibition at 10 µM turned out to be 95.3%.
Consider `CCC1CCCc2c1c1cccc(C(=O)O)c1n2Cc1cccc(C(N)=O)c1` (stereo not drawn) [9-[(3-carbamoylphenyl)methyl]-4-ethyl-2,3,4,9-tetrahydro-1H-carbazole-8-carboxylic acid], for which the inhibition at 1 µM worked out at 87% and the inhibition at 10 µM worked out at 102%.
On to `CCCCCC1CCc2c(c3cccc(C(=O)O)c3n2Cc2cccc(C(N)=O)c2)C1` (stereo not drawn) [9-[(3-carbamoylphenyl)methyl]-3-pentyl-2,3,4,9-tetrahydro-1H-carbazole-8-carboxylic acid], for which the inhibition at 1 µM was determined as 90.9% and the inhibition at 10 µM came out at 98.4%.
For `CCCCCCC1CCCc2c(n(Cc3cncc(C#N)c3)c3c(C(=O)O)cccc23)C1` (stereo not drawn) [5-[(5-cyanopyridin-3-yl)methyl]-7-hexyl-5H,6H,7H,8H,9H,10H-cyclohepta[b]indole-4-carboxylic acid], the inhibition at 1 µM worked out at 90.5% and the inhibition at 10 µM amounted to 91.8%.
For the compound `CCCCCCC1CCc2c(n(Cc3ccccc3C)c3c(C(=O)O)cccc23)C1` (stereo not drawn) [2-hexyl-9-[(2-methylphenyl)methyl]-2,3,4,9-tetrahydro-1H-carbazole-8-carboxylic acid], the inhibition at 1 µM came to 87.4% and the inhibition at 10 µM was determined as 83.2%.
For the compound `CCCCCCC1CCCc2c(n(Cc3cccc(Cl)c3)c3c(C(=O)O)cccc23)C1` (stereo not drawn) [5-[(3-chlorophenyl)methyl]-7-hexyl-5H,6H,7H,8H,9H,10H-cyclohepta[b]indole-4-carboxylic acid], the inhibition at 1 µM was 103% and the inhibition at 10 µM is 45.9%.
In the case of `CCCCCCC1CCCc2c(n(Cc3ccnc(C(F)(F)F)c3)c3c(C(=O)O)cccc23)C1` (stereo not drawn) [7-hexyl-5-{[2-(trifluoromethyl)pyridin-4-yl]methyl}-5H,6H,7H,8H,9H,10H-cyclohepta[b]indole-4-carboxylic acid], the inhibition at 1 µM turned out to be 87.6% and the inhibition at 10 µM worked out at 94.7%.
Taken in the same sequence, the figures for `CCCCC1CCCc2c(n(Cc3ccnc(OC)c3)c3c(C(=O)O)cccc23)C1` (stereo not drawn) [7-butyl-5-[(2-methoxypyridin-4-yl)methyl]-5H,6H,7H,8H,9H,10H-cyclohepta[b]indole-4-carboxylic acid] were 83.4% and 88.2%.
Take `CCCCCC1CCCCc2c1c1cccc(C(=O)O)c1n2Cc1cccc(C(N)=O)c1` (stereo not drawn) [5-[(3-carbamoylphenyl)methyl]-10-pentyl-5H,6H,7H,8H,9H,10H-cyclohepta[b]indole-4-carboxylic acid]: the inhibition at 1 µM turned out to be 81.1% and the inhibition at 10 µM was found to be 96.1%.
For `CCCCCC1CCCc2c(n(Cc3cccc(C#N)c3)c3c(C(=O)O)cccc23)C1` (stereo not drawn) [5-[(3-cyanophenyl)methyl]-7-pentyl-5H,6H,7H,8H,9H,10H-cyclohepta[b]indole-4-carboxylic acid], the inhibition at 1 µM was 100% and the inhibition at 10 µM turned out to be 96.1%.
As for `CCC1CCc2c(c3cccc(C(=O)O)c3n2Cc2cccc(C#N)c2)C1` (stereo not drawn) [9-[(3-cyanophenyl)methyl]-3-ethyl-2,3,4,9-tetrahydro-1H-carbazole-8-carboxylic acid], the inhibition at 1 µM amounted to 45.8% and the inhibition at 10 µM is 90.3%.
The like results for `CCCCC1CCCc2c(n(Cc3cccc(O)c3)c3c(C(=O)O)cccc23)C1` (stereo not drawn) [7-butyl-5-[(3-hydroxyphenyl)methyl]-5H,6H,7H,8H,9H,10H-cyclohepta[b]indole-4-carboxylic acid] were, in that order, 98.7% and 96.1%.
The like results for `CCCC1CCc2c(c3cccc(C(=O)O)c3n2Cc2cccc(C#N)c2)C1` (stereo not drawn) [9-[(3-cyanophenyl)methyl]-3-propyl-2,3,4,9-tetrahydro-1H-carbazole-8-carboxylic acid] were, in that order, 46.8% and 85.4%.
The like results for `CCCCC1CCCc2c(n(Cc3cccc(C#N)c3)c3c(C(=O)NCCO)cccc23)C1` (stereo not drawn) [7-butyl-5-[(3-cyanophenyl)methyl]-N-(2-hydroxyethyl)-5H,6H,7H,8H,9H,10H-cyclohepta[b]indole-4-carboxamide] were, in that order, 6.65% and 42.7%.
